From PubChem BioAssay AID248 (DTP/NCI, 2004)
Where “and” joins values, the source holds several entries; their conditions need not be identical. Equal values may be shown once. Toxic doses and inconclusive results are not listed.

Tested on: L1210 leukemia ip in BDF1 mice, survival T/C
Assay: NCI In Vivo Anticancer Drug Screen. Data for tumor model L1210 Leukemia (intraperitoneal) in B6D2F1 (BDF1) mice
Settings: endpoint: mean survival time, higher = longer survival
Outline: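 Antitumor effect is assessed in tumor-bearing animals. Survival in the compound arm is compared with a vehicle-dosed control arm and expressed as their quotient.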

[1] = dose: 100.0 mg/kg/injection, schedule: Q01DX001 (ip), vehicle: saline
[2] = dose: 200.0 mg/kg/injection, schedule: Q01DX001 (ip), vehicle: saline
[3] = dose: 100.0 mg/kg/injection, schedule: Q04DX003 (ip), vehicle: Klucel (hydroxypropylcellulose) (HPC)
[4] = dose: 200.0 mg/kg/injection, schedule: Q01DX009 (ip), vehicle: Klucel (hydroxypropylcellulose) (HPC)
[5] = dose: 200.0 mg/kg/injection, schedule: Q04DX003 (ip), vehicle: Klucel (hydroxypropylcellulose) (HPC)
[6] = dose: 400.0 mg/kg/injection, schedule: Q04DX003 (ip), vehicle: Klucel (hydroxypropylcellulose) (HPC)
[7] = dose: 100.0 mg/kg/injection, schedule: Q04DX003 (ip), vehicle: saline
[8] = dose: 200.0 mg/kg/injection, schedule: Q04DX003 (ip), vehicle: saline
[9] = dose: 50.0 mg/kg/injection, schedule: Q01DX009 (ip), vehicle: saline
[10] = dose: 100.0 mg/kg/injection, schedule: Q01DX009 (ip), vehicle: saline
[11] = dose: 200.0 mg/kg/injection, schedule: Q01DX009 (ip), vehicle: saline
[12] = dose: 100.0 mg/kg/injection, schedule: Q01DX009 (ip), vehicle: Klucel (hydroxypropylcellulose) (HPC)
[13] = dose: 100.0 mg/kg/injection, schedule: Q01DX001 (ip), vehicle: Klucel (hydroxypropylcellulose) (HPC)
[14] = dose: 400.0 mg/kg/injection, schedule: Q01DX009 (ip), vehicle: Klucel (hydroxypropylcellulose) (HPC)

With `CCCSc1ncnc2nc[nH]c12` the T/C (dose: 31.3 mg/kg/injection, schedule: Q01DX009 (ip), vehicle: saline) was 93 % of control and 100 % of control, the T/C (dose: 62.5 mg/kg/injection, schedule: Q01DX009 (ip), vehicle: saline) was 97 % of control and 121 % of control and the T/C (dose: 125.0 mg/kg/injection, schedule: Q01DX009 (ip), vehicle: saline) was 121 % of control. The T/C (dose: 250.0 mg/kg/injection, schedule: Q01DX009 (ip), vehicle: saline) was 100 % of control.
For `COc1ccccc1N=Nc1c(O)[nH]c2ccccc12`, the T/C [1] was 96 % of control, the T/C [2] was 96 % of control and the T/C (dose: 400.0 mg/kg/injection, schedule: Q01DX001 (ip), vehicle: saline) was 102 % of control.
In the case of `CC1CC(C)CC(NC(=O)NCCCl)C1` (stereo not drawn), the T/C (dose: 20.0 mg/kg/injection, schedule: Q01DX009 (ip), vehicle: Klucel (hydroxypropylcellulose) (HPC)) is reported as 106 % of control, the T/C (dose: 40.0 mg/kg/injection, schedule: Q01DX009 (ip), vehicle: Klucel (hydroxypropylcellulose) (HPC)) is reported as 95 % of control and the T/C (dose: 80.0 mg/kg/injection, schedule: Q01DX009 (ip), vehicle: Klucel (hydroxypropylcellulose) (HPC)) is reported as 93 % of control. The T/C [3] was 103 % of control, the T/C [4] was 87 % of control and the T/C [5] was 94 % of control. The T/C [6] was 92 % of control.
For `CNC(=O)CCC(=O)NC`, the T/C (dose: 75.0 mg/kg/injection, schedule: Q04DX003 (ip), vehicle: saline) was 95 % of control, the T/C [7] was 100 % of control and the T/C (dose: 150.0 mg/kg/injection, schedule: Q04DX003 (ip), vehicle: saline) was 98 % of control. For the same compound, the T/C [8] was 102 % of control, the T/C (dose: 300.0 mg/kg/injection, schedule: Q04DX003 (ip), vehicle: saline) was 95 % of control and the T/C (dose: 400.0 mg/kg/injection, schedule: Q04DX003 (ip), vehicle: saline) was 111 % of control.
With `CCc1ccccc1N1CCN(C(=O)c2cc(OC)c(OC)c(OC)c2)CC1` the T/C (dose: 25.0 mg/kg/injection, schedule: Q01DX009 (ip), vehicle: saline) was 100 % of control, the T/C [9] was 102 % of control and 105 % of control and the T/C (dose: 50.0 mg/kg/injection, schedule: Q01DX Z (ip), vehicle: carboxymethylcellulose (CMC)) was 104 % of control. The T/C (dose: 50.0 mg/kg/injection, schedule: Q04DX003 (ip), vehicle: acetone) was 98 % of control, the T/C (dose: 50.0 mg/kg/injection, schedule: Q04DX003 (ip), vehicle: saline) was 94 % of control and the T/C (dose: 74.0 mg/kg/injection, schedule: Q01DX009 (ip), vehicle: saline) was 100 % of control. For the same compound, the T/C (dose: 74.0 mg/kg/injection, schedule: Q01DX Z (ip), vehicle: carboxymethylcellulose (CMC)) was 107 % of control, the T/C (dose: 74.0 mg/kg/injection, schedule: Q04DX003 (ip), vehicle: saline) was 92 % of control and the T/C [1] was 100 % of control. The T/C [10] was 114 % of control, the T/C (dose: 100.0 mg/kg/injection, schedule: Q04DX003 (ip), vehicle: acetone) was 97 % of control and the T/C (dose: 112.0 mg/kg/injection, schedule: Q01DX009 (ip), vehicle: saline) was 97 % of control. The T/C (dose: 112.0 mg/kg/injection, schedule: Q01DX Z (ip), vehicle: carboxymethylcellulose (CMC)) was 102 % of control, the T/C (dose: 112.0 mg/kg/injection, schedule: Q04DX003 (ip), vehicle: saline) was 99 % of control and the T/C (dose: 168.0 mg/kg/injection, schedule: Q01DX009 (ip), vehicle: saline) was 108 % of control. The T/C (dose: 168.0 mg/kg/injection, schedule: Q04DX003 (ip), vehicle: saline) was 97 % of control and 99 % of control, the T/C [2] was 103 % of control and the T/C [11] was 100 % of control. For the same compound, the T/C [8] was 103 % of control, the T/C (dose: 225.0 mg/kg/injection, schedule: Q01DX009 (ip), vehicle: saline) was 97 % of control and the T/C (dose: 250.0 mg/kg/injection, schedule: Q04DX003 (ip), vehicle: saline) was 103 % of control.
With `CCOC(=O)/C=C/Oc1cc(Cl)c(Cl)cc1Cl` the T/C (dose: 100.0 mg/kg/injection, schedule: Q01DX009 (ip), vehicle: saline with Tween-80) was 110 % of control, the T/C (dose: 200.0 mg/kg/injection, schedule: Q01DX009 (ip), vehicle: saline with Tween-80) was 92 % of control and the T/C (dose: 400.0 mg/kg/injection, schedule: Q01DX009 (ip), vehicle: saline with Tween-80) was 93 % of control.
In the case of `Cc1cccnc1C(=O)O`, the T/C (dose: 50.0 mg/kg/injection, schedule: Q04DX003 (ip), vehicle: saline with Tween-80) is reported as 94 % of control, the T/C [1] is reported as 94 % of control and the T/C (dose: 100.0 mg/kg/injection, schedule: Q04DX003 (ip), vehicle: saline with Tween-80) is reported as 95 % of control. For the same compound, the T/C [2] was 94 % of control and the T/C (dose: 200.0 mg/kg/injection, schedule: Q04DX003 (ip), vehicle: saline with Tween-80) was 91 % of control.
With `O=NN(CCCl)C(=O)N[C@@H]1CCCC[C@H]1O` the T/C (dose: 1.6 mg/kg/injection, schedule: Q01DX001 (ip), vehicle: saline with Tween-80) was 106 % of control, the T/C (dose: 2.4 mg/kg/injection, schedule: Q01DX001 (ip), vehicle: saline with Tween-80) was 116 % of control and the T/C (dose: 5.4 mg/kg/injection, schedule: Q01DX001 (ip), vehicle: saline with Tween-80) was 183 % of control. For the same compound, the T/C (dose: 6.0 mg/kg/injection, schedule: Q01DX001 (ip), vehicle: saline with Tween-80) was 302 % of control, the T/C (dose: 8.0 mg/kg/injection, schedule: Q01DX001 (ip), vehicle: saline with Tween-80) was 441 % of control and the T/C (dose: 9.0 mg/kg/injection, schedule: Q01DX001 (ip), vehicle: saline with Tween-80) was 492 % of control. The T/C (dose: 12.0 mg/kg/injection, schedule: Q01DX001 (ip), vehicle: saline with Tween-80) was 441 % of control and 468 % of control, the T/C (dose: 13.0 mg/kg/injection, schedule: Q01DX001 (ip), vehicle: saline with Tween-80) was 505 % of control and the T/C (dose: 18.0 mg/kg/injection, schedule: Q01DX001 (ip), vehicle: saline with Tween-80) was 441 % of control. For the same compound, the T/C (dose: 20.0 mg/kg/injection, schedule: Q01DX001 (ip), vehicle: saline with Tween-80) was 505 % of control, the T/C (dose: 26.0 mg/kg/injection, schedule: Q01DX001 (ip), vehicle: saline with Tween-80) was 166 % of control and the T/C (dose: 30.0 mg/kg/injection, schedule: Q01DX001 (ip), vehicle: saline with Tween-80) was 195 % of control.
`O=C(O)/C(=C\c1ccccc1)c1cccc2ccccc12` was tested, and the T/C [12] was 100 % of control and the T/C [4] was 98 % of control.
With `Cc1cc(C(=O)O)c(C(=O)O)c(=O)[nH]1` the T/C (dose: 75.0 mg/kg/injection, schedule: Q01DX001 (ip), vehicle: other) was 111 % of control, the T/C (dose: 150.0 mg/kg/injection, schedule: Q01DX001 (ip), vehicle: other) was 104 % of control and the T/C (dose: 300.0 mg/kg/injection, schedule: Q01DX001 (ip), vehicle: other) was 102 % of control.
For `NC(=S)N/N=C/c1ccncc1`, the T/C [9] was 96 % of control, the T/C [10] was 98 % of control and the T/C [7] was 96 % of control. For the same compound, the T/C [11] was 93 % of control and the T/C [8] was 91 % of control.
For `CN(C)CC1C(O)C2CCN1CC2` (stereo not drawn), the T/C [7] was 103 % of control and the T/C [8] was 103 % of control.
For `COc1cccc(C(=O)O)c1N`, the T/C (dose: 25.0 mg/kg/injection, schedule: Q01DX001 (ip), vehicle: Klucel (hydroxypropylcellulose) (HPC)) was 102 % of control, the T/C (dose: 50.0 mg/kg/injection, schedule: Q01DX001 (ip), vehicle: Klucel (hydroxypropylcellulose) (HPC)) was 98 % of control and the T/C [13] was 91 % of control.
With `c1ccc(-c2ccc([Si](c3ccccc3)(c3ccccc3)c3ccccc3)cc2)cc1` the T/C [12] was 102 % of control, the T/C [3] was 105 % of control and the T/C [4] was 96 % of control. The T/C [5] was 94 % of control, the T/C [14] was 93 % of control and the T/C [6] was 96 % of control.
For `O=C1C(=O)c2c(nc3ccccn23)-c2ccccc21`, the T/C [13] was 103 % of control, the T/C (dose: 200.0 mg/kg/injection, schedule: Q01DX001 (ip), vehicle: Klucel (hydroxypropylcellulose) (HPC)) was 94 % of control and the T/C (dose: 400.0 mg/kg/injection, schedule: Q01DX001 (ip), vehicle: Klucel (hydroxypropylcellulose) (HPC)) was 105 % of control.
With `S=C(NCc1cccc2ccccc12)Nc1ccccc1` the T/C [12] was 95 % of control, the T/C [4] was 97 % of control and the T/C [14] was 104 % of control.
